#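 Assay format: 96-well plates, 48-hour exposure. Abbreviation: GI50, concentration required for 50% inhibition of growth.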 Active and inactive are the calls of the source. Rule as the data show it: active = GI50 up to about 1.1 µM and inactive = higher.
# Assays:
# Test in all cases: DTP human tumour cell line panel, 48 h
# [1] = test system: IGROV-1
# [2] = test system: HL-60
# [3] = test system: SNB-75
# [4] = test system: M14
# [5] = test system: NCI-H522
# [6] = test system: SK-MEL-28
# [7] = test system: SF-295
# [8] = test system: ACHN
# [9] = test system: SF-539
# [10] = test system: A498
# [11] = test system: DU-145
# [12] = test system: RXF 393
# [13] = test system: SN12C
# [14] = test system: HOP-92
# [15] = test system: MDA-MB-435
# [16] = test system: A549
# [17] = test system: UACC-62
# [18] = test system: OVCAR-3
# [19] = test system: K562
# [20] = test system: UO-31
Structure (SMILES),GI50 [1],GI50 [2],GI50 [3],GI50 [4],GI50 [5],GI50 [6],GI50 [7],GI50 [8],GI50 [9],GI50 [10],GI50 [11],GI50 [12],GI50 [13],GI50 [14],GI50 [15],GI50 [16],GI50 [17],GI50 [18],GI50 [19],GI50 [20]
CCCCCC(CO)C(O)(C(F)(F)F)C(F)(F)F (stereo not drawn),> 10 µM (inactive),> 10 µM (inactive),> 10 µM (inactive),> 10 µM (inactive),> 10 µM (inactive),> 10 µM (inactive),> 10 µM (inactive),> 10 µM (inactive),> 10 µM (inactive),> 10 µM (inactive),> 10 µM (inactive),> 10 µM (inactive),> 10 µM (inactive),> 10 µM (inactive),> 10 µM (inactive),> 10 µM (inactive),> 10 µM (inactive),> 10 µM (inactive),> 10 µM (inactive),
O=CC1C(Cl)=Nc2nc3ccccc3n2C1c1ccccc1 (stereo not drawn),15.9 µM (inactive),20 µM (inactive),17 µM (inactive),23.7 µM (inactive),14.3 µM (inactive),14.3 µM (inactive),> 100 µM (inactive),17.4 µM (inactive),18.1 µM (inactive),3.01 µM (inactive),16 µM (inactive),13.7 µM (inactive),20.7 µM (inactive),10.4 µM (inactive),38.5 µM (inactive),23.8 µM (inactive),24.7 µM (inactive),23.2 µM (inactive),15.2 µM (inactive),14.7 µM (inactive)
CN(CCNCc1cn(C)c2c1ccc1ccccc12)CCNCc1cn(C)c2c1ccc1ccccc12,1.6 µM (inactive),1.06 µM (active),1.21 µM (inactive),0.726 µM (active),1.77 µM (inactive),1.43 µM (inactive),1.79 µM (inactive),1.63 µM (inactive),1.77 µM (inactive),0.188 µM (active),1.64 µM (inactive),0.499 µM (active),1.56 µM (inactive),1.6 µM (inactive),1.78 µM (inactive),1.45 µM (inactive),1.67 µM (inactive),1.84 µM (inactive),0.458 µM (active),1.39 µM (inactive)
CC1=NN(C(=O)c2ccncc2)C(=O)C1/N=N/c1ccc2ccccc2c1 (stereo not drawn),22.9 µM (inactive),1.71 µM (inactive),> 100 µM (inactive),12.2 µM (inactive),> 100 µM (inactive),> 100 µM (inactive),91 µM (inactive),> 100 µM (inactive),> 96.8 µM (inactive),> 100 µM (inactive),> 73.5 µM (inactive),> 100 µM (inactive),> 100 µM (inactive),> 100 µM (inactive),3.4 µM (inactive),28.1 µM (inactive),44.2 µM (inactive),28.1 µM (inactive),5.46 µM (inactive),> 100 µM (inactive)
O=C1c2ccccc2/C=C\C(c2ccccc2)=N/N1c1ccccc1Cl,29.4 µM (inactive),12.7 µM (inactive),25.9 µM (inactive),21.9 µM (inactive),12.2 µM (inactive),24 µM (inactive),26.1 µM (inactive),26.4 µM (inactive),35.7 µM (inactive),26.5 µM (inactive),49.1 µM (inactive),19.2 µM (inactive),23 µM (inactive),26.5 µM (inactive),3.44 µM (inactive),17.1 µM (inactive),,27.5 µM (inactive),5.26 µM (inactive),32.5 µM (inactive)
CN(C)CC1CN(C(=O)Nc2ccccc2)C(=N)O1 (stereo not drawn),> 100 µM (inactive),> 100 µM (inactive),> 100 µM (inactive),> 100 µM (inactive),> 100 µM (inactive),> 100 µM (inactive),> 100 µM (inactive),> 100 µM (inactive),> 100 µM (inactive),> 100 µM (inactive),38.2 µM (inactive),> 100 µM (inactive),> 100 µM (inactive),> 100 µM (inactive),> 100 µM (inactive),> 100 µM (inactive),> 100 µM (inactive),> 100 µM (inactive),> 100 µM (inactive),> 100 µM (inactive)
COC(=O)c1c(C)cccc1C1CN=NC12Cc1ccc(C)cc1C2=O (stereo not drawn),52 µM (inactive),21.6 µM (inactive),57.5 µM (inactive),38.8 µM (inactive),29.4 µM (inactive),43.4 µM (inactive),65.9 µM (inactive),26.9 µM (inactive),47 µM (inactive),43.6 µM (inactive),49 µM (inactive),75.9 µM (inactive),48.4 µM (inactive),23.8 µM (inactive),32.7 µM (inactive),33.5 µM (inactive),32.6 µM (inactive),38.6 µM (inactive),29.8 µM (inactive),36.1 µM (inactive)

# From ChEMBL document CHEMBL1201862, “PubChem BioAssay data set” (2004)
